In PubChem BioAssay (NCI) one finds TGI data, which are given here for 8 compounds.

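These data come from cells grown in 96-well plates and exposed to compound for 48 hours at five concentrations. TGI is the concentration that stops growth completely.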

Among the test systems are OVCAR-8 ovarian; SK-OV-3 ovarian; KM20L2 colon; SK-MEL-5 melanoma; HCC-2998 colon; A549 NSCLC; HL-60(TB) leukemia; CAKI-1 renal; SF-539 CNS; KM12 colon; NCI-H460 lung; EKVX NSCLC; U251 CNS; UACC-62 melanoma; SK-MEL-28 melanoma; NCI-H522 lung; HOP-92 NSCLC; SNB-19 CNS; DU-145 prostate; HS 578T breast.
What all share (test): DTP human tumour cell line panel, 48 h

The term TGI denotes the concentration giving total growth inhibition. A high value points to less potent growth arrest. For the compound `CCCCCCCCCCCCCCCCCCCCCCC(=O)N[C@H]1CCc2cc(OC)c(OC)c(OC)c2-c2ccc(SC)c(=O)cc21`, the TGI is 85.6 µM with OVCAR-8 ovarian; 53.6 µM with SK-OV-3 ovarian; 37.1 µM with KM20L2 colon; more than 100 µM in the assay with SK-MEL-5 melanoma; 65.9 µM in the assay on HCC-2998 colon; more than 100 µM in the assay on A549 NSCLC. Moreover, the concentration for total growth inhibition (TGI) is 48.9 µM with HL-60(TB) leukemia; more than 100 µM with CAKI-1 renal; 41.3 µM in the assay on SF-539 CNS; more than 100 µM with KM12 colon; 83 µM with NCI-H460 lung; more than 100 µM with EKVX NSCLC. The TGI in the assay with U251 CNS was 53.2 µM; in the assay with UACC-62 melanoma, more than 100 µM; with SK-MEL-28 melanoma, more than 100 µM; in the assay on NCI-H522 lung it was 33.1 µM; in the assay on HOP-92 NSCLC it was more than 100 µM; in the assay on SNB-19 CNS it was more than 100 µM.

On to `CCCCc1c2c([n+]([O-])c3c1CCCC3)CCCC2`, for which the TGI in the assay on OVCAR-8 ovarian, in the assay on SK-OV-3 ovarian, in the assay with KM20L2 colon, in the assay on SK-MEL-5 melanoma, in the assay on HCC-2998 colon and in the assay on A549 NSCLC was more than 100 µM throughout. Moreover, the TGI in the assay with HL-60(TB) leukemia, with SF-539 CNS, in the assay on KM12 colon, in the assay with NCI-H460 lung, in the assay on EKVX NSCLC and in the assay on U251 CNS was more than 100 µM throughout. Moreover, the TGI with SK-MEL-28 melanoma was more than 100 µM; in the assay with NCI-H522 lung it was 5.33 µM; in the assay with SNB-19 CNS it was more than 100 µM.

`COc1ccc(CCN2C(=O)C(=O)C(C(=O)c3ccccc3)C2c2ccccc2)cc1OC` (centres undefined): the TGI in the assay with OVCAR-8 ovarian, in the assay on SK-OV-3 ovarian, with SK-MEL-5 melanoma, with HCC-2998 colon, with DU-145 prostate and with A549 NSCLC was more than 100 µM each time. The TGI with HL-60(TB) leukemia, in the assay with CAKI-1 renal, with SF-539 CNS, in the assay with KM12 colon, with NCI-H460 lung and with EKVX NSCLC was more than 100 µM in each case. The TGI in the assay on U251 CNS, with UACC-62 melanoma, in the assay with SK-MEL-28 melanoma, with NCI-H522 lung, in the assay on HOP-92 NSCLC and in the assay with SNB-19 CNS was more than 100 µM in each case. For the same compound, the concentration for total growth inhibition (TGI) in the assay on HS 578T breast is more than 100 µM.

In the case of `c1ccc2sc(C3(N4CCCCCC4)CCCCC3)cc2c1`, the concentration for total growth inhibition (TGI) was more than 100 µM in the assay with OVCAR-8 ovarian; more than 100 µM in the assay with SK-OV-3 ovarian; 33.3 µM in the assay with SK-MEL-5 melanoma; 29.4 µM in the assay with HCC-2998 colon; more than 100 µM with DU-145 prostate; more than 100 µM with A549 NSCLC. The TGI was 40.9 µM in the assay on HL-60(TB) leukemia; more than 100 µM in the assay on CAKI-1 renal; 46.1 µM in the assay with SF-539 CNS; 31.8 µM in the assay on KM12 colon; 45.1 µM in the assay on NCI-H460 lung; 43.9 µM with EKVX NSCLC. The TGI with U251 CNS came out at 35 µM; in the assay on UACC-62 melanoma it was 45.7 µM; with SK-MEL-28 melanoma, 55 µM; with NCI-H522 lung, 36.4 µM; in the assay on HOP-92 NSCLC, 80 µM; with SNB-19 CNS, 44.6 µM. The same compound yielded a TGI in the assay with HS 578T breast of 44.7 µM.

As for `COC(=O)c1nc2n(n1)-c1ccccc1C(=O)N(Cc1ccccc1)C2`, the TGI in the assay with OVCAR-8 ovarian, in the assay with SK-OV-3 ovarian, in the assay on SK-MEL-5 melanoma, in the assay with HCC-2998 colon, with DU-145 prostate and with A549 NSCLC was more than 100 µM throughout. Besides, the TGI in the assay with HL-60(TB) leukemia, in the assay on CAKI-1 renal, with SF-539 CNS, with KM12 colon, with NCI-H460 lung and in the assay on EKVX NSCLC was more than 100 µM each time. In addition, the TGI in the assay on U251 CNS, in the assay on UACC-62 melanoma, in the assay on SK-MEL-28 melanoma, in the assay with NCI-H522 lung, in the assay with HOP-92 NSCLC and in the assay on SNB-19 CNS was more than 100 µM throughout. This compound also came in with a concentration for total growth inhibition (TGI) with HS 578T breast of more than 100 µM.

Consider `CCn1c(O)c(C(=O)Nc2cccs2)c(=O)n(CC)c1=S`, for which the TGI in the assay with OVCAR-8 ovarian worked out at 60.2 µM; with SK-OV-3 ovarian, 77.9 µM; in the assay with KM20L2 colon it was 32.9 µM; in the assay with SK-MEL-5 melanoma, 38.5 µM; in the assay with A549 NSCLC, 49.8 µM; in the assay on HL-60(TB) leukemia, 40 µM. Moreover, the TGI was found to be 75.9 µM in the assay on CAKI-1 renal; 33.1 µM in the assay on SF-539 CNS; 32.6 µM with KM12 colon; 34.5 µM with NCI-H460 lung; 25.9 µM in the assay with U251 CNS; 29.5 µM in the assay with UACC-62 melanoma. The TGI was found to be 32.2 µM with SK-MEL-28 melanoma, 38.4 µM in the assay on NCI-H522 lung, 47.8 µM in the assay with HOP-92 NSCLC and 48 µM in the assay on SNB-19 CNS.

On to `COc1cc(Nc2nc(NS(=O)(=O)c3cc(C)c(Cl)cc3S)n[nH]2)cc(OC)c1OC`, for which the TGI in the assay with OVCAR-8 ovarian, with SK-OV-3 ovarian, in the assay with SK-MEL-5 melanoma, in the assay on HCC-2998 colon, with DU-145 prostate and in the assay with A549 NSCLC was more than 100 µM each time. Moreover, the TGI with HL-60(TB) leukemia, in the assay with CAKI-1 renal, in the assay on SF-539 CNS, in the assay on KM12 colon, with NCI-H460 lung and in the assay on EKVX NSCLC was more than 100 µM each time. Also, the TGI in the assay with U251 CNS, in the assay on UACC-62 melanoma, in the assay with SK-MEL-28 melanoma, in the assay with NCI-H522 lung, with HOP-92 NSCLC and in the assay on SNB-19 CNS was more than 100 µM throughout. This compound also registered a TGI in the assay with HS 578T breast of more than 100 µM.

For the compound `Cc1ccc(Nc2nc3ccccc3nc2NS(=O)(=O)c2ccc(N)cc2)cc1`, the total growth inhibition concentration (TGI) is more than 100 µM in the assay on OVCAR-8 ovarian; more than 100 µM in the assay on SK-OV-3 ovarian; more than 100 µM in the assay with SK-MEL-5 melanoma; 6.55 µM in the assay on HCC-2998 colon; more than 100 µM in the assay on DU-145 prostate; more than 100 µM with A549 NSCLC. The TGI with HL-60(TB) leukemia was 80.5 µM; in the assay with CAKI-1 renal, more than 100 µM; in the assay with SF-539 CNS it was more than 100 µM; in the assay with KM12 colon, 94.3 µM; in the assay with NCI-H460 lung, more than 100 µM; with EKVX NSCLC, more than 100 µM. In addition, the TGI with U251 CNS, with UACC-62 melanoma, with SK-MEL-28 melanoma, in the assay on NCI-H522 lung, with HOP-92 NSCLC and in the assay on SNB-19 CNS was more than 100 µM in each case. This compound gave a TGI in the assay with HS 578T breast of more than 100 µM.
